Patent US6399745B1, “Use of leptin antagonists for treating insulin resistance in type II diabetes” (Aventis Pharma Deutschland GmbH, priority 1996, dated 2002)

Legend:
isolated rat adipocytes [1] = test: Glucose transport (2-deoxyglucose uptake) in isolated rat adipocytes after primary culture with leptin, basal and insulin-stimulated; format: cell-based; conditions: for Glucose Transport, stimulation factor for insulin (stimulated/basal): Insulin concentration: 5 nM
Experimental: Adipocytes were prepared from the epididymal fat tissue of male Wistar rats (140-160 g, Hoechst AG breeding station, Kastengrund) by means of digesting with collagenase (Rodbell, 1964, J. Biol. Chem. 239, 375-380), washed twice with KRH (25 mM Hepes free acid, 25 mM Hepes sodium salt, 80 mM NaCl, 1 mM MgSO4, 2 mM CaCl2, 6 mM KCl, 1 mM sodium pyruvate, 0.5% BSA) and once with DMEM (Dulbecco's minimal essential medium), supplemented with 5.5 mM glucose, 20 mM Hepes (pH 7.4), 2% fetal calf serum, 1% BSA, 50 U of penicillin/ml, […], by means of flotation (800×g, 1 min, in small plastic tubes), and finally diluted to a volume of 20 ml of DMEM/g wet weight of the fat tissue (cell titer: approximately 2.5×10^5 cells/ml).
The adipocytes were incubated, at 37° C. for 15-18 h under an atmosphere of 5% CO2 and with gentle shaking, in supplemented (see above) DMEM in the presence of 100 nM phenylisopropyladenosine (4 ml of DMEM to 1 ml of cells, cell titer approximately 5×10^4 cell/ml, in 50 ml sterile polypropylene: tubes) and in the presence or absence of leptin. The adipocytes were subsequently washed three times with cold KRH and adjusted to a cell titer of approximately 3×10^5 cells/ml by adding 0.7 ml of glucose-free KRH to the cell layer which remained after the complete removal of the last washing solution. In order to determine the capacity of the adipocytes to be stimulated by insulin, and their sensitivity to insulin, following the primary culture, the washed adipocytes were incubated at 37° C. for 20 min in the absence or presence of human insulin (0.02-50 nM final concentration), and glucose transport or lipogenesis was then measured.
Glucose transport was measured as the specific uptake of the non-metabolizable glucose analog 2-deoxyglucose (Muller and Wied, 1993, Diabetes 42, 1852-1867). 50 μl of the adipocyte suspension in KRH, which suspension had or had not been preincubated with insulin (see above), were incubated, at 25° C. for 5 min, with 50 μl of KRH which was supplemented with 2-deoxy-D-[2,6-^3H]glucose (0.5 μCi, 0.2 mM). The incubation mixtures were transferred to thin soft-plastic centrifuge tubes, each of which already contained 200 μl of dinonyl phthalate oil, and immediately centrifuged (2,000×g, 30 sec). Using special shears, the tubes were severed within the oil layer (in the vicinity of the upper edge) and the upper halves of the tubes, together with the cell layers which had in each case been floated onto the oil layer, were transferred to scintillation vials. After 10 ml of scintillation fluid (water-based) had been added, the radioactivity associated with the cells was measured. In order to correct for 2-deoxyglucose which had become enclosed in the cell interstices, or had diffused into the cells, in a non-specific manner, the radioactivity of cells which had been preincubated with cytochalasin B (20 μM) was subtracted from the total cell-associated radioactivity of each individual incubation mixture (Gliemann et al., 1972, Biochim. Biophys. Acta 286, 1-9).
Isolated rat adipocytes were incubated for 15 h in primary culture in the presence or absence of increasing concentrations of leptin. […] The stimulation factor for insulin was calculated as the ratio between insulin-stimulated and basal activities. Each value represents the mean from two independent adipocyte cultures with activity being determined two or three times in each case.
The cells were then washed and tested for the stimulation of glucose transport by differing concentrations of insulin. Glucose transport activity is given as a “dpm value” of the 2deoxy-[^3H]glucose which is specifically associated with the cells. Each value represents the mean from two independent adipocyte cultures with the activity being determined four times in each case.

isolated rat adipocytes [2] = test: Insulin stimulation of glycogenesis in isolated rat adipocytes under leptin; format: cell-based; conditions: basal values unaffected
ob/ob mice = conditions: injection; cited from earlier work
[3] = system: insulin receptor and insulin receptor substrate 1 (IRS-1); conditions: rat 1 fibroblasts overexpressing human insulin receptor; cited from earlier work
C2C12 mouse myotubes = conditions: cited from earlier work

In the case of Leptin, the “leptin concentration at which effects can already be detected in vitro” value (isolated rat adipocytes [1]; insulin dose/effect curves at different leptin concentrations) was 0.5 to 1 nM, the “glucose transport, uptake of 3H-labeled 2-deoxyglucose” value (from here on “glucose transport, uptake”) (isolated rat adipocytes [1]; leptin 0.05 nM 16.5 h, insulin 0.02 nM) was 735 dpm and the “glucose transport, uptake” value (isolated rat adipocytes [1]; leptin 0.05 nM 16.5 h, insulin 0.05 nM) was 1025 dpm. For the same substance, the “glucose transport, uptake” value (isolated rat adipocytes [1]; leptin 0.05 nM 16.5 h, insulin 0.1 nM) was 1674 dpm, the “glucose transport, uptake” value (isolated rat adipocytes [1]; leptin 0.05 nM 16.5 h, insulin 0.2 nM) was 3320 dpm and the “glucose transport, uptake” value (isolated rat adipocytes [1]; leptin 0.05 nM 16.5 h, insulin 0.5 nM) was 5138 dpm. For the same substance, the “glucose transport, uptake” value (isolated rat adipocytes [1]; leptin 0.05 nM 16.5 h, insulin 1 nM) was 6834 dpm, the “glucose transport, uptake” value (isolated rat adipocytes [1]; leptin 0.05 nM 16.5 h, insulin 2 nM) was 7942 dpm and the “glucose transport, uptake” value (isolated rat adipocytes [1]; leptin 0.05 nM 16.5 h, insulin 5 nM) was 8794 dpm. For the same substance, the “glucose transport, uptake” value (isolated rat adipocytes [1]; leptin 0.05 nM 16.5 h, insulin 10 nM) was 9134 dpm, the “glucose transport, uptake” value (isolated rat adipocytes [1]; leptin 0.05 nM 16.5 h, insulin 50 nM) was 9189 dpm and the “glucose transport, uptake” value (isolated rat adipocytes [1]; leptin 0.05 nM 16.5 h, no insulin (basal)) was 654 dpm. The “Glucose Transport, stimulation factor for insulin (stimulated/basal)” value (“Glucose Transport … (stimulated/basal)” below) (isolated rat adipocytes [1]; leptin 0.3 nM 15 h) was 13.4, the “Glucose Transport … (stimulated/basal)” value (isolated rat adipocytes [1]; leptin 1 nM 15 h) was 11.75 and the “glucose transport, uptake” value (isolated rat adipocytes [1]; leptin 1 nM 16.5 h, insulin 0.02 nM) was 678 dpm. For the same substance, the “glucose transport, uptake” value (isolated rat adipocytes [1]; leptin 1 nM 16.5 h, insulin 0.05 nM) was 824 dpm, the “glucose transport, uptake” value (isolated rat adipocytes [1]; leptin 1 nM 16.5 h, insulin 0.1 nM) was 1189 dpm and the “glucose transport, uptake” value (isolated rat adipocytes [1]; leptin 1 nM 16.5 h, insulin 0.2 nM) was 1587 dpm. The “glucose transport, uptake” value (isolated rat adipocytes [1]; leptin 1 nM 16.5 h, insulin 0.5 nM) was 2180 dpm, the “glucose transport, uptake” value (isolated rat adipocytes [1]; leptin 1 nM 16.5 h, insulin 1 nM) was 3904 dpm and the “glucose transport, uptake” value (isolated rat adipocytes [1]; leptin 1 nM 16.5 h, insulin 2 nM) was 5510 dpm. For the same substance, the “glucose transport, uptake” value (isolated rat adipocytes [1]; leptin 1 nM 16.5 h, insulin 5 nM) was 6985 dpm, the “glucose transport, uptake” value (isolated rat adipocytes [1]; leptin 1 nM 16.5 h, insulin 10 nM) was 8241 dpm and the “glucose transport, uptake” value (isolated rat adipocytes [1]; leptin 1 nM 16.5 h, insulin 50 nM) was 8932 dpm. The “glucose transport, uptake” value (isolated rat adipocytes [1]; leptin 1 nM 16.5 h, no insulin (basal)) was 634 dpm, the “glucose transport, uptake” value (isolated rat adipocytes [1]; leptin 2 nM 16.5 h, insulin 0.02 nM) was 704 dpm and the “glucose transport, uptake” value (isolated rat adipocytes [1]; leptin 2 nM 16.5 h, insulin 0.05 nM) was 755 dpm. For the same substance, the “glucose transport, uptake” value (isolated rat adipocytes [1]; leptin 2 nM 16.5 h, insulin 0.1 nM) was 860 dpm, the “glucose transport, uptake” value (isolated rat adipocytes [1]; leptin 2 nM 16.5 h, insulin 0.2 nM) was 1006 dpm and the “glucose transport, uptake” value (isolated rat adipocytes [1]; leptin 2 nM 16.5 h, insulin 0.5 nM) was 1377 dpm. For the same substance, the “glucose transport, uptake” value (isolated rat adipocytes [1]; leptin 2 nM 16.5 h, insulin 1 nM) was 1916 dpm, the “glucose transport, uptake” value (isolated rat adipocytes [1]; leptin 2 nM 16.5 h, insulin 2 nM) was 2680 dpm and the “glucose transport, uptake” value (isolated rat adipocytes [1]; leptin 2 nM 16.5 h, insulin 5 nM) was 4323 dpm. The “glucose transport, uptake” value (isolated rat adipocytes [1]; leptin 2 nM 16.5 h, insulin 10 nM) was 6107 dpm, the “glucose transport, uptake” value (isolated rat adipocytes [1]; leptin 2 nM 16.5 h, insulin 50 nM) was 7032 dpm and the “glucose transport, uptake” value (isolated rat adipocytes [1]; leptin 2 nM 16.5 h, no insulin (basal)) was 688 dpm. For the same substance, the “Glucose Transport … (stimulated/basal)” value (isolated rat adipocytes [1]; leptin 3 nM 15 h) was 7.4, the “glucose transport, uptake” value (isolated rat adipocytes [1]; leptin 5 nM 16.5 h, insulin 0.02 nM) was 734 dpm and the “glucose transport, uptake” value (isolated rat adipocytes [1]; leptin 5 nM 16.5 h, insulin 0.05 nM) was 798 dpm. For the same substance, the “glucose transport, uptake” value (isolated rat adipocytes [1]; leptin 5 nM 16.5 h, insulin 0.1 nM) was 883 dpm, the “glucose transport, uptake” value (isolated rat adipocytes [1]; leptin 5 nM 16.5 h, insulin 0.2 nM) was 923 dpm and the “glucose transport, uptake” value (isolated rat adipocytes [1]; leptin 5 nM 16.5 h, insulin 0.5 nM) was 1167 dpm. For the same substance, the “glucose transport, uptake” value (isolated rat adipocytes [1]; leptin 5 nM 16.5 h, insulin 1 nM) was 1583 dpm, the “glucose transport, uptake” value (isolated rat adipocytes [1]; leptin 5 nM 16.5 h, insulin 2 nM) was 2140 dpm and the “glucose transport, uptake” value (isolated rat adipocytes [1]; leptin 5 nM 16.5 h, insulin 5 nM) was 2950 dpm. For the same substance, the “glucose transport, uptake” value (isolated rat adipocytes [1]; leptin 5 nM 16.5 h, insulin 10 nM) was 3682 dpm, the “glucose transport, uptake” value (isolated rat adipocytes [1]; leptin 5 nM 16.5 h, insulin 50 nM) was 4031 dpm and the “glucose transport, uptake” value (isolated rat adipocytes [1]; leptin 5 nM 16.5 h, no insulin (basal)) was 712 dpm. For the same substance, the “Glucose Transport … (stimulated/basal)” value (isolated rat adipocytes [1]; leptin 10 nM 15 h) was 3.5, the “glucose transport, uptake” value (isolated rat adipocytes [1]; leptin 10 nM 16.5 h, insulin 0.02 nM) was 773 dpm and the “glucose transport, uptake” value (isolated rat adipocytes [1]; leptin 10 nM 16.5 h, insulin 0.05 nM) was 802 dpm. The “glucose transport, uptake” value (isolated rat adipocytes [1]; leptin 10 nM 16.5 h, insulin 0.1 nM) was 856 dpm, the “glucose transport, uptake” value (isolated rat adipocytes [1]; leptin 10 nM 16.5 h, insulin 0.2 nM) was 941 dpm and the “glucose transport, uptake” value (isolated rat adipocytes [1]; leptin 10 nM 16.5 h, insulin 0.5 nM) was 1209 dpm. The “glucose transport, uptake” value (isolated rat adipocytes [1]; leptin 10 nM 16.5 h, insulin 1 nM) was 1573 dpm, the “glucose transport, uptake” value (isolated rat adipocytes [1]; leptin 10 nM 16.5 h, insulin 2 nM) was 2061 dpm and the “glucose transport, uptake” value (isolated rat adipocytes [1]; leptin 10 nM 16.5 h, insulin 5 nM) was 2476 dpm. The “glucose transport, uptake” value (isolated rat adipocytes [1]; leptin 10 nM 16.5 h, insulin 10 nM) was 2710 dpm, the “glucose transport, uptake” value (isolated rat adipocytes [1]; leptin 10 nM 16.5 h, insulin 50 nM) was 2967 dpm and the “glucose transport, uptake” value (isolated rat adipocytes [1]; leptin 10 nM 16.5 h, no insulin (basal)) was 755 dpm. The “Glucose Transport … (stimulated/basal)” value (isolated rat adipocytes [1]; leptin 30 nM 15 h) was 2.35, the “glucose transport, uptake” value (isolated rat adipocytes [1]; leptin 30 nM 16.5 h, insulin 0.02 nM) was 704 dpm and the “glucose transport, uptake” value (isolated rat adipocytes [1]; leptin 30 nM 16.5 h, insulin 0.05 nM) was 745 dpm. For the same substance, the “glucose transport, uptake” value (isolated rat adipocytes [1]; leptin 30 nM 16.5 h, insulin 0.1 nM) was 789 dpm, the “glucose transport, uptake” value (isolated rat adipocytes [1]; leptin 30 nM 16.5 h, insulin 0.2 nM) was 852 dpm and the “glucose transport, uptake” value (isolated rat adipocytes [1]; leptin 30 nM 16.5 h, insulin 0.5 nM) was 943 dpm. For the same substance, the “glucose transport, uptake” value (isolated rat adipocytes [1]; leptin 30 nM 16.5 h, insulin 1 nM) was 1183 dpm, the “glucose transport, uptake” value (isolated rat adipocytes [1]; leptin 30 nM 16.5 h, insulin 2 nM) was 1374 dpm and the “glucose transport, uptake” value (isolated rat adipocytes [1]; leptin 30 nM 16.5 h, insulin 5 nM) was 1782 dpm. For the same substance, the “glucose transport, uptake” value (isolated rat adipocytes [1]; leptin 30 nM 16.5 h, insulin 10 nM) was 1972 dpm, the “glucose transport, uptake” value (isolated rat adipocytes [1]; leptin 30 nM 16.5 h, insulin 50 nM) was 2114 dpm and the “glucose transport, uptake” value (isolated rat adipocytes [1]; leptin 30 nM 16.5 h, no insulin (basal)) was 688 dpm. For the same substance, the “Glucose Transport … (stimulated/basal)” value (isolated rat adipocytes [1]; leptin 100 nM 15 h) was 1.5, the “glucose transport, uptake” value (isolated rat adipocytes [1]; leptin 100 nM 16.5 h, insulin 0.02 nM) was 766 dpm and the “glucose transport, uptake” value (isolated rat adipocytes [1]; leptin 100 nM 16.5 h, insulin 0.05 nM) was 780 dpm. The “glucose transport, uptake” value (isolated rat adipocytes [1]; leptin 100 nM 16.5 h, insulin 0.1 nM) was 803 dpm, the “glucose transport, uptake” value (isolated rat adipocytes [1]; leptin 100 nM 16.5 h, insulin 0.2 nM) was 813 dpm and the “glucose transport, uptake” value (isolated rat adipocytes [1]; leptin 100 nM 16.5 h, insulin 0.5 nM) was 883 dpm. For the same substance, the “glucose transport, uptake” value (isolated rat adipocytes [1]; leptin 100 nM 16.5 h, insulin 1 nM) was 896 dpm, the “glucose transport, uptake” value (isolated rat adipocytes [1]; leptin 100 nM 16.5 h, insulin 2 nM) was 1034 dpm and the “glucose transport, uptake” value (isolated rat adipocytes [1]; leptin 100 nM 16.5 h, insulin 5 nM) was 1205 dpm. For the same substance, the “glucose transport, uptake” value (isolated rat adipocytes [1]; leptin 100 nM 16.5 h, insulin 10 nM) was 1451 dpm, the “glucose transport, uptake” value (isolated rat adipocytes [1]; leptin 100 nM 16.5 h, insulin 50 nM) was 1723 dpm and the “glucose transport, uptake” value (isolated rat adipocytes [1]; leptin 100 nM 16.5 h, no insulin (basal)) was 747 dpm. The “insulin sensitivity of stimulation of glucose transport” value (isolated rat adipocytes [1]; leptin, basal values unaffected) was “drastically reduced”, the “insulin sensitivity of stimulation of glycogenesis” value (isolated rat adipocytes [2]) was “drastically reduced” and the nutrient intake (ob/ob mice) was “reduction in nutrient intake”. The weight (ob/ob mice) was “decrease in weight”, the “insulin-induced phosphorylation of the insulin receptor and of IRS-1” value [3] was “decreases” and the glucose transport (C2C12 mouse myotubes) was “stimulated”. The glycogen synthesis (C2C12 mouse myotubes) was “stimulated”.
